Experimental data reported in patent US20020028938A1, “Prostaglandin endoperoxide H synthase biosynthesis inhibitors” (priority 1997, published 2002).

How the values were obtained:
[1] = target: T1, recombinant human Cox-1 (r-hu Cox1) (Homo sapiens, UniProt P23219); assay: Recombinant human PGHS-1 enzyme assay (RHUCX1); assay type: biochemical
T1 construct: made in house; host or cells: baculovirus/Sf9 insect cells (microsomes)
Outline: (§1)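 PGE2 formed with and without drug quantified by EIA against matrix-matched standards; percent inhibition relative to control mean, IC50 by linear regression.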

[2] = target: T2, human amnionic whole cell cyclooxygenase-2 (WISH cells) (Homo sapiens, UniProt P35354); assay: IL-1β induced PGE2 production in WISH cells; assay type: cell-based; conditions: read-out: Wish IC50 (parenthetical value)
T2 construct: endogenous in cells; host or cells: human amnionic WISH cells, induced with IL-1beta
T2 sequence (P35354 18-604): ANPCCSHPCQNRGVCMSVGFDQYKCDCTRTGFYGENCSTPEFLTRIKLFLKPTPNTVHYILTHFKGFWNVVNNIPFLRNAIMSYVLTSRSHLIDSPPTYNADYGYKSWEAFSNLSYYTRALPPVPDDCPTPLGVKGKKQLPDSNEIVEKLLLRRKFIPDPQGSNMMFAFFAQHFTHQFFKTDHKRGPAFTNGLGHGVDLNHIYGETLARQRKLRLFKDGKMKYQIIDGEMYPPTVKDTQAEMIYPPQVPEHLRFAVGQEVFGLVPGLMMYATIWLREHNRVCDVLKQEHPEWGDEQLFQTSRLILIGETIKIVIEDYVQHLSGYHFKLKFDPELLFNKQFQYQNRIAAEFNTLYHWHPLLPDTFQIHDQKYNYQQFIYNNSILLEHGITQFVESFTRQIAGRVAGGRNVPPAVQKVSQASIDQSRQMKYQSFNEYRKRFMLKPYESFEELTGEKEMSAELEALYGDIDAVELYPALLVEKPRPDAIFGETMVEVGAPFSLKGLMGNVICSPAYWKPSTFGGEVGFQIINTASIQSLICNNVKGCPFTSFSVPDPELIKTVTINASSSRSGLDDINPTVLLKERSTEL
Outline: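 Confluent (80%) WISH cells were stimulated with 5 ng/ml IL-1β in serum-free Neuman-Tytell medium, with or without test compound in DMSO (0.01% v/v). PGE2 in the culture medium was measured by EIA against standards prepared in the same medium, read by optical density.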

[3] = target: T3, recombinant human Cox-2 (r-hu Cox-2) (Homo sapiens, UniProt P35354); assay: Recombinant human PGHS-2 enzyme assay (RHUCX2); assay type: biochemical; conditions: for IC50: read-out: RHUCX2 IC50 (parenthetical value); for inhibition at 0.01 µM / inhibition at 0.1 µM / inhibition at 1 µM: read-out: RHUCX2 % Inh. at Dose
T3 construct: made in house; host or cells: baculovirus/Sf9 insect cells (microsomes)
T3 sequence (P35354 18-604): T2 sequence (P35354 18-604)
Outline: as §1

[4] = tested on: air pouch prostaglandin biosynthesis (Cox-2); assay: Carrageenan induced air pouch prostaglandin biosynthesis model (CAP); assay type: in vivo, rat; conditions: for inhibition in vivo at 3 mg/kg: 4 h, read-out: CAP % Inhib. @ 3 mpk; for ED50: Rattus norvegicus
Outline: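 Male Sprague Dawley rats with dorsal air pouches (20 mL air day 0, 10 mL day 3) received 0.2% lambda carrageenan in saline into the pouch on day 7. Compounds dosed at 0.1 to 10 mg/kg 30 min before carrageenan; pouch lavaged 4 h later, prostaglandins measured by EIA. Percent inhibition versus control mean; ED50 by linear regression.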

[5] = tested on: carrageenan induced paw edema; assay: Carrageenan induced paw edema (CPE) in rats; assay type: in vivo; conditions: 10 mpk oral, rat, 3 hours after carrageenan; for inhibition in vivo at 10 mg/kg: read-out: CPE % Inhib. @ 10 mpk
Protocol: For oral administration, test compounds were suspended on the day of use in 100% polyethyleneglycol (PEG 400) with a motorized homogenizer equipped with a Teflon-coated pestle (TRI-R Instrument, Jamaica, N.Y.).
To compare the mean responses of the treatment groups, analysis of variance was applied. Percent inhibition values were determined by comparing the individual treatment mean values to the mean of the control group. Linear regression was used to estimate IC50's/ED50's in appropriate assays.
Hingpaw edema was […] in male rats as described by Winter et al., Proc. Soc. Exp. Biol. Med., 1962, 111, 544. Briefly, male Sprague-Dawley rats weighing between 170 and 190 g were administered test compounds orally 1 hour prior to the subplantar injection of 0.1 ml of 1% sodium carrageenan (lambda carrageenan, Sigma Chemical Co., St Louis, Mo.) into the right hindpaw. Right paw volumes (ml) were measured immediately following injection of carrageenan for baseline volume measurements using a Buxco plethysmograph (Buxco Electronics, Inc., Troy, N.Y.). Three hours after the injection of carrageenan, right paws were remeasured and paw edema calculated for each rat by subtracting the zero time reading from the 3 hour reading. Data are reported as mean percent inhibition +/−SEM. Statistical significance of results was analyzed by Dunnetts multiple comparison test where p<0.05 was considered statistically significant.

[6] = target: T4, Human Whole Platelet Cyclooxygenase-1 (Homo sapiens, UniProt P23219); assay: Human Whole Platelet Cyclooxygenase-1 assay (HWPX); assay type: cell-based; conditions: for IC50: read-out: HWPX IC50 (parenthetical value)
T4 construct: from tissue; host or cells: human blood: isolated platelets (A4) or heparinised whole blood (A9)
T4 sequence (P23219 24-599): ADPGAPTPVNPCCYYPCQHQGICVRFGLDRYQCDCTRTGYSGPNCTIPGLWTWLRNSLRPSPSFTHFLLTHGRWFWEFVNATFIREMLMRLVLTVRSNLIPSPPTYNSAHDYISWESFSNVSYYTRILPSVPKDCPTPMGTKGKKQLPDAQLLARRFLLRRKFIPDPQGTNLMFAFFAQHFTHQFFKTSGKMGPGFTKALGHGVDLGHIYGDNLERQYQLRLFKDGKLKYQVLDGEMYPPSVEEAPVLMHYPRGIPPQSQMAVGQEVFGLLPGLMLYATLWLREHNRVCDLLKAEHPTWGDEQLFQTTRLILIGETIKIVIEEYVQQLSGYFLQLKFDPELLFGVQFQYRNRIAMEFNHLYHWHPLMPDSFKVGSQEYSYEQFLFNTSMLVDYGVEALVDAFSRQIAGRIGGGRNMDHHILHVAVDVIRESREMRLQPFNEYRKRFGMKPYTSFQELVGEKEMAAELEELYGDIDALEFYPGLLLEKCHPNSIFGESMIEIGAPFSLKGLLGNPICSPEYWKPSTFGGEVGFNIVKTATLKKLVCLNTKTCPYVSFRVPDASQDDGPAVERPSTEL
Outline: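 Washed platelets from healthy-donor ACD blood were pre-incubated with compound for 10 min, then stimulated with calcium ionophore A23187 (8.8 μM final) for 10 min. Reaction stopped with cold 6 mM EDTA; thromboxane in supernatants quantified with a commercial kit.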

[7] = read-out: RHUCX1 % Inh. at Dose

T1 sequence (P23219 24-599): as above

| Compound | inhibition at 100 µM [1, 7] [%] | melting point [°C] | IC50 [2] [nM] | IC50 [3] [nM] | inhibition in vivo at 3 mg/kg ([4]; 3 mpk, rat) [%] | inhibition in vivo at 10 mg/kg [5] [%] | IC50 [6] [nM] | inhibition at 200 µM ([1]; 200 μM, read-out: RHUCX1 % Inh. at Dose) [%] | ED50 [4] [mg/kg] | RHUCX1 % Inh. at Dose (μM) ([1]; 1 μM) | RHUCX1 % Inh. at Dose (μM) ([1]; 10 μM) | CAP % Inhib. @ 3 mpk ([4]; 3 mpk, rat) [%] | CPE % Inhib. @ 10 mpk [5] [%] | HWPX % Inhib. at Dose (μM) ([6]; 0.3 μM) | IC50 ([1]; read-out: RHUCX1 IC50 (parenthetical value)) [nM] | inhibition at 0.01 µM [3] [%] | inhibition at 0.1 µM [3] [%] | inhibition at 1 µM [3] [%] |
| --- | --- | --- | --- | --- | --- | --- | --- | --- | --- | --- | --- | --- | --- | --- | --- | --- | --- | --- |
| CS(=O)(=O)c1ccc(-c2cnn(-c3ccc(F)c(F)c3)c(=O)c2Oc2ccc(F)cc2)cc1 [Example 109, 2-(3,4-Difluorophenyl)-4-(4-fluorophenoxy)-5-[4-(methylsulfonyl)phenyl]-3(2H)-pyridazinone] | 6 | 178 to 180 | 18 | 147 | 71 | 13 | 2690 |  |  |  |  |  |  |  |  |  |  |  |
| CC(C)(C)COc1c(-c2ccc(S(C)(=O)=O)cc2)cnn(CC(F)(F)F)c1=O [Example 261] |  | 145 to 146 | 99 | 161 | 79 | 28 | 34000 | 0 |  |  |  |  |  |  |  |  |  |  |
| CC(C)CCOc1c(-c2ccc(S(C)(=O)=O)cc2)cnn(-c2cccc(Cl)c2)c1=O [Example 339, 2-(3-Chlorophenyl)-4-(3-methylbutoxy)-5-[4-(methylsulfonyl)phenyl]-3(2H)-pyridazinone] | 2 | 134 to 135 | 26 | 88 | 90.5 | 43 | 393 |  | 0.58 |  |  |  |  |  |  |  |  |  |
| NS(=O)(=O)c1ccc(-c2cnn(-c3ccc(F)c(F)c3)c(=O)c2Oc2ccc(F)cc2)cc1 [Example 388, 2-(3,4-Difluophenyl)-4-(4-fluorophenoxy)-5-[4-(aminosulfonyl)phenyl]-3(2H)-pyridazinone] |  |  | 32 | 49 |  |  |  |  |  | 36 @ 1% | 74 @ 10% | 80 | 28 | 0 @ .3% |  |  |  |  |
| CC(C)CCc1c(-c2ccc(S(N)(=O)=O)cc2)cnn(-c2ccc(F)cc2)c1=O [Example 396, 2-(4-Fluorophenyl)-4-(3-methylbutyl)-5-[4-(aminosulfonyl)phenyl]-3(2H)-pyridazinone] | 22 | 180 to 183 | 20 | 59 | 85 | 23 | 12700 |  |  |  |  |  |  |  |  |  |  |  |
| CC(C)COc1c(-c2ccc(S(N)(=O)=O)cc2)cnn(-c2ccc(F)c(F)c2)c1=O [Example 403, 2-(3,4-Difluorophenyl)-4-(2-methylpropoxy)-5-[4-(aminosulfonyl)phenyl]-3(2H)-pyridazinone] |  | 169 to 171 | 18 |  | 68.5 | 43 | 902 |  | 0.35 |  |  |  |  |  | 151000 | 36 | 64 | 92 |
| CC(C)(C)COc1c(-c2ccc(S(N)(=O)=O)cc2)cnn(-c2ccc(F)c(F)c2)c1=O [Example 406, 2-(3,4-Difluorophenyl)-4-(2,2-dimethylpropoxy)-5-[4-(aminosulfonyl)phenyl]-3(2H)-pyridazinone] | 23 | 173 to 175 | 26 |  | 66.5 | 23 | 1610 |  |  |  |  |  |  |  |  | 18 | 64 | 100 |
